From patent US20210395210A1, “INHIBITION OF BACTERIAL CHAPERONIN SYSTEMS” (THE TRUSTEES OF INDIANA UNIVERSITY, priority 2018, published 2021)
pIC50: −log10 of the molar value. Where two headings read alike, the source gives them in different places.

Key:
E. coli GroEL/ES = biological target: T1, E. coli GroEL/ES (Escherichia coli, UniProt P0A6F5); experiment: GroEL/ES-mediated dRho refolding assay; assay type: biochemical; conditions: for log(IC50) GroEL/ES-dRho Refolding: log of IC50 (μM scale), with standard deviation
T1 construct: made in house; host or cells: GroEL in E. coli DH5α; GroES in E. coli BL21 (DE3)
Description: Reagent preparation: For this assay, five primary reagent stocks were prepared: 1) GroEUES-dRho binary complex stock; 2) ATP initiation stock; 3) thiocyanate enzymatic assay stock; 4) formaldehyde quench stock; 5) ferric nitrate reporter stock. Denatured rhodanese (dRho) was prepared by 3-fold dilution of rhodanese (Roche product #R1756, diluted to 10 mg/mL with H2O) with denaturant buffer (12 M Urea, 50 mM Tris-HCl, pH 7.4, and 10 mM DTT). Rhodanese was completely denatured by incubating at room temperature for 45 min. The binary complex solution was prepared by slowly adding the dRho stock to a stirring stock of concentrated GroEL in modified folding buffer (50 mM Tris-HCl, pH 7.4, 50 mM KCl, 10 mM MgCl2, 5 mM Na2S2O3, and 1 mM DTT). The solution was centrifuged at 16,000×g for 5 minutes, and the supernatant was collected and added to a solution of GroES in modified folding buffer to give final protein concentrations of 100 nM GroEL, 120 nM GroES, and 80 nM dRho. The binary complex stock was prepared immediately prior to use. For the ATP initiation stock, ATP solid was diluted into modified folding buffer to a final concentration of 2.0 mM. The thiocyanate enzymatic assay stock was prepared to contain 70 mM KH2PO4, 80 mM KCN, and 80 mM Na2S2O3 in water. The formaldehyde quench solution contained 30% formaldehyde in water. The ferric nitrate reporter stock contained 8.5% w/v Fe(NO3)3 and 11.3% v/v HNO3 in water.
Assay Protocol: First, 10 μL aliquots of the GroEL/ES-dRho complex stock were dispensed into clear, 384-well polystyrene plates. […] The chaperonin-mediated refolding cycle was initiated by addition of 10 μL of ATP stock (reagent concentrations during refolding cycle: 50 nM GroEL, 60 nM GroES, 40 nM dRho, 1 mM ATP, and compounds of 250 μM to 114 nM, 3-fold dilution series). After incubating for 45 minutes at 37° C. for the refolding cycle, 30 μL of the thiocyanate enzymatic assay stock was added and incubated for 60 min at R.T. for the refolded rhodenase enzymatic reporter reaction. The reporter reaction was quenched by adding 10 μL of the formaldehyde quench stock, and then 40 μL of the ferric nitrate reporter stock was added to quantify the amount of thiocyanate produced during the enzymatic reporter reaction, which is proportional to the amount of dRho refolded by GroEL/ES. After incubating at R.T. for 15 min, the absorbance by Fe(SCN)3 was measured at 460 nm using a Molecular Devices SpectraMax Plus384 microplate reader. A second set of baseline control plates were prepared analogously, but without GroEL/ES-dRho protein binary solution, to correct for possible interference from compound absorbance or turbidity. […] Results presented represent the averages of IC50 values obtained from at least quadriplicate (duplicate of duplicate) replicates.
After generating the compound library, we next employed a series of well-established biochemical assays to evaluate compound inhibitory effects against the GroEUES chaperonin system (See FIG. 6 and FIG. 7). We used E. coli GroEUES as the surrogate chaperonin system for refolding of the reporter enzymes malate dehydrogenase (MDH) and rhodanese (Rho). Briefly, binary complexes are formed between GroEL and denatured MDH or Rho, which are then refolded to their native states upon addition of ATP and the GroES co-chaperonin. Enzymatic activities of refolded native MDH or Rho act as coupled reporters of GroEUES refolding functions since in the presence of chaperonin inhibitors, no functional reporter enzymes are generated.

native Rho (rhodanese) = biological target: T2, native Rho (rhodanese) (Bos taurus, UniProt P00586); experiment: Counter-screen for inhibition of native rhodanese enzymatic activity; assay type: biochemical; conditions: for log(IC50) Native Rho Reporter: log of IC50 (μM scale), with standard deviation
T2 construct: purchased Roche (so in the source) R1756
T2 sequence (P00586 1-297): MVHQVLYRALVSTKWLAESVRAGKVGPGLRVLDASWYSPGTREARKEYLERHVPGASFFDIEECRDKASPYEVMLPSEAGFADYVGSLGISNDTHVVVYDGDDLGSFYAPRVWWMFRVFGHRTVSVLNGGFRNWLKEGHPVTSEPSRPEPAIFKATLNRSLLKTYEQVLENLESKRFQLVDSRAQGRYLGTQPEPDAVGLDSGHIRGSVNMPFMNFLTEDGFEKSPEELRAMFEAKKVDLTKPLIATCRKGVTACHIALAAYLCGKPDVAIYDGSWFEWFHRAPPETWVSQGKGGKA
Description: Reagent Preparations & Assay Protocol: Reagents were identical to those used in the GroEUES-dRho refolding assay described above; however, the assay protocol differed in the sequence of compound addition to the wells. Compounds were pin-transferred after the 60 minute incubation for the refolding cycle, but prior to the addition of the thiocyanate enzymatic assay stock. Thus, the refolding reactions were allowed to proceed for 60 min at 37° C. in the absence of test compounds, but the enzymatic activity of the refolded rhodanese reporter enzyme was monitored in the presence of test compounds (inhibitor concentration range during the enzymatic reporter reaction is 100 µM to 46 nM-3-fold dilutions). IC50 values for the rhodenase reporter enzyme were determined as described above. Results presented represent the averages of IC50 values obtained from at least quadriplicate (duplicate of duplicate) replicates.

[1] = Liver cell viability assay (Alamar Blue); conditions: human
Description: HEK 293 cells were maintained in MEM medium (Corning Cellgro, 10-009 CV) supplemented with 10% FBS (Sigma, F2242). […] Cells at 80% confluence were harvested and diluted in growth medium, then 45 μL of the THLE-3 cells (1,500 cells/well) or HEK 293 cells (1,500 cells/well) were dispensed per well, and plates were sealed with “Breathe Easy” oxygen permeable membranes (Diversified Biotech) and incubated at 37° C., 5% CO2, for 24 h.

[2] = read-out: Biochemical Assay IC50 Native Rho Reporter

T1 sequence (P0A6F5 2-548): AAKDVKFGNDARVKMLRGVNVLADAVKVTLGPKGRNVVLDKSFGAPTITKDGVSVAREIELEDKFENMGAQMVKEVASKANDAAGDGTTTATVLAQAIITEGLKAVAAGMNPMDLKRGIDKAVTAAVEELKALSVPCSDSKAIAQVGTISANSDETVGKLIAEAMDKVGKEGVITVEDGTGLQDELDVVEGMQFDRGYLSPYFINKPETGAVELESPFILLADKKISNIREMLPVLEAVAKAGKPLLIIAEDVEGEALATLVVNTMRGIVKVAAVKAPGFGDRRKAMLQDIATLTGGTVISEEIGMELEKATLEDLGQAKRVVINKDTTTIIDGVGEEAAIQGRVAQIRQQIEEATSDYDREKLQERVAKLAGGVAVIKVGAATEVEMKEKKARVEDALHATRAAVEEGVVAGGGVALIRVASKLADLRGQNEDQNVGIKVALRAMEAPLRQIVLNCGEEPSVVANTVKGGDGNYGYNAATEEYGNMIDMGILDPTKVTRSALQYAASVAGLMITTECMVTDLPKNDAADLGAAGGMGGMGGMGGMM

SMILES	pIC50 (E. coli GroEL/ES)	log(IC50) GroEL/ES-dRho Refolding (E. coli GroEL/ES)	log(IC50) Native Rho Reporter (native Rho (rhodanese))	pIC50 (native Rho (rhodanese); [2])	CC50 at 48 h ([1]; THLE-3 liver cells)	pIC50 (E. coli GroEL/ES; read-out: Biochemical Assay IC50 GroEL/ES-dRho Refolding)	pIC50 (native Rho (rhodanese))	CC50 at 48 h [1]
O=C(Nc1ccccc1)c1cc(Br)cc(Br)c1O [Compound 13, 3,5-Dibromo-2-hydroxy-N-phenylbenzamide]	< 4.00	>2	>2	< 4.00	25.1 µM			
O=C(Nc1ccccc1)c1ccccc1O [Compound 16, 2-Hydroxy-N-phenylbenzamide]		>2	>2			< 4.00	< 4.00	67.6 µM
O=C(Nc1ccc(Sc2nc3ccccc3s2)c(Cl)c1)c1cc(Br)cc(Br)c1 [Compound 17, N-(4-(Benzo[d]thiazol-2-ylthio)-3-chlorophenyl)-3,5-dibromobenzamide]	< 4.00			< 4.00				> 100 µM
O=C(Nc1ccc(Sc2nc3ccccc3s2)c(Cl)c1)c1cccc(Br)c1 [Compound 18, N-(4-(Benzo[d]thiazol-2-ylthio)-3-chlorophenyl)-3-bromobenzamide]	< 4.00			< 4.00				87.1 µM
O=C(Nc1ccc(Sc2nc3ccccc3s2)cc1)c1cc(Br)cc(Br)c1 [Compound 20, N-(4-(Benzo[d]thiazol-2-ylthio)phenyl)-3,5-dibromobenzamide]	< 4.00			< 4.00				> 100 µM
O=C(Nc1ccc(Sc2nc3ccccc3s2)cc1)c1ccccc1 [Compound 22, N-(4-(Benzo[d]thiazol-2-ylthio)phenyl)benzamide]	< 4.00			< 4.00				> 100 µM
O=C(Nc1cccc(Cl)c1)c1cccc(Br)c1 [Compound 24, 3-Bromo-N-(3-chlorophenyl)benzamide]	< 4.00	>2	>2	< 4.00				50.1 µM
O=C(Nc1cccc(Cl)c1)c1ccccc1 [Compound 25, N-(3-Chlorophenyl)benzamide]	< 4.00	>2	>2	< 4.00				> 100 µM
O=C(Nc1ccccc1)c1cc(Br)cc(Br)c1 [Compound 26, 3,5-Dibromo-N-phenylbenzamide]	< 4.00	>2	>2	< 4.00				> 100 µM
O=C(Nc1ccccc1)c1cccc(Br)c1 [Compound 27, 3-Bromo-N-phenylbenzamide]	< 4.00	>2	>2	< 4.00				> 100 µM
COc1c(Br)cc(Br)cc1C(=O)Nc1ccc(Sc2nc3ccccc3s2)c(Cl)c1 [Compound 29, N-(4-(Benzo[d]thiazol-2-ylthio)-3-chlorophenyl)-3,5-dibromo-2-methoxybenzamide]	< 4.00			< 4.00				> 100 µM
